Measurements reported in the NIST ThermoML archive (doi:10.1016/j.jct.2018.09.003).
± gives the expanded uncertainty stated by the source.

What was measured:
[1] = activity coefficient (dimensionless); of the first substance listed, at infinite dilution; xn = mol fraction of the nth substance listed; details: 101.33 kPa, Liquid, Chromatography, x1 = 0
[2] = 101.33 kPa, Liquid, Vibrating tube method

Row | SMILES | activity coefficient ([1]; 313.15 K) | activity coefficient ([1]; 323.15 K) | activity coefficient ([1]; 333.15 K) | activity coefficient ([1]; 343.15 K) | activity coefficient ([1]; 353.15 K) | mass density ([2]; 313.15 K) [kg/m3] | mass density ([2]; 323.15 K) [kg/m3] | mass density ([2]; 333.15 K) [kg/m3] | mass density ([2]; 343.15 K) [kg/m3] | mass density ([2]; 353.15 K) [kg/m3]
1 | Cc1ccccc1C [1,2-dimethylbenzene] + CCCCCCCCn1cc[n+](C)c1C.F[B-](F)(F)F | 3.5 ± 0.37 | 3.58 ± 0.38 | 3.7 ± 0.39 | 3.82 ± 0.4 | 3.87 ± 0.41 | – | – | – | – | –
2 | Cc1ccccc1 [toluene] + CCCCCCCCn1cc[n+](C)c1C.F[B-](F)(F)F | 2.84 ± 0.3 | 2.89 ± 0.3 | 2.95 ± 0.31 | 3.02 ± 0.32 | 3.09 ± 0.32 | – | – | – | – | –
3 | C1COCCO1 [1,4-dioxane] + CCCCCCCCn1cc[n+](C)c1C.F[B-](F)(F)F | 1.67 ± 0.17 | 1.72 ± 0.18 | 1.77 ± 0.18 | 1.81 ± 0.19 | 1.86 ± 0.19 | – | – | – | – | –
4 | C1=CCCCC1 [cyclohexene] + CCCCCCCCn1cc[n+](C)c1C.F[B-](F)(F)F | 8.2 ± 0.86 | 8.01 ± 0.84 | 7.81 ± 0.82 | 7.63 ± 0.8 | 7.52 ± 0.79 | – | – | – | – | –
5 | Cc1cccc(C)c1 [1,3-dimethylbenzene] + CCCCCCCCn1cc[n+](C)c1C.F[B-](F)(F)F | 4.19 ± 0.44 | 4.24 ± 0.45 | 4.29 ± 0.45 | 4.35 ± 0.46 | 4.4 ± 0.46 | – | – | – | – | –
6 | CC(C)=O [acetone] + CCCCCCCCn1cc[n+](C)c1C.F[B-](F)(F)F | 1.38 ± 0.14 | 1.4 ± 0.14 | 1.41 ± 0.15 | 1.42 ± 0.15 | 1.43 ± 0.15 | – | – | – | – | –
7 | ClCCl [dichloromethane] + CCCCCCCCn1cc[n+](C)c1C.F[B-](F)(F)F | 1.08 ± 0.11 | 1.09 ± 0.11 | 1.1 ± 0.11 | 1.1 ± 0.11 | 1.11 ± 0.11 | – | – | – | – | –
8 | ClC(Cl)Cl [trichloromethane] + CCCCCCCCn1cc[n+](C)c1C.F[B-](F)(F)F | 1.04 ± 0.11 | 1.06 ± 0.11 | 1.07 ± 0.11 | 1.08 ± 0.11 | 1.09 ± 0.11 | – | – | – | – | –
9 | c1ccccc1 [benzene] + CCCCCCCCn1cc[n+](C)c1C.F[B-](F)(F)F | 2.04 ± 0.21 | 2.07 ± 0.22 | 2.1 ± 0.22 | 2.12 ± 0.22 | 2.15 ± 0.23 | – | – | – | – | –
10 | C1CCOC1 [tetrahydrofuran] + CCCCCCCCn1cc[n+](C)c1C.F[B-](F)(F)F | 2.06 ± 0.22 | 2.1 ± 0.22 | 2.12 ± 0.22 | 2.13 ± 0.22 | 2.15 ± 0.23 | – | – | – | – | –
11 | ClC(Cl)(Cl)Cl [tetrachloromethane] + CCCCCCCCn1cc[n+](C)c1C.F[B-](F)(F)F | 4.11 ± 0.43 | 4.16 ± 0.44 | 4.2 ± 0.44 | 4.23 ± 0.44 | 4.26 ± 0.45 | – | – | – | – | –
12 | C1CCCCC1 [cyclohexane] + CCCCCCCCn1cc[n+](C)c1C.F[B-](F)(F)F | 12.8 ± 1.4 | 12.5 ± 1.3 | 12.2 ± 1.3 | 11.9 ± 1.2 | 11.5 ± 1.2 | – | – | – | – | –
13 | Cc1ccc(C)cc1 [1,4-dimethylbenzene] + CCCCCCCCn1cc[n+](C)c1C.F[B-](F)(F)F | 4.06 ± 0.43 | 4.12 ± 0.43 | 4.16 ± 0.44 | 4.2 ± 0.44 | 4.24 ± 0.45 | – | – | – | – | –

The next lines start with the values.

Row | activity coefficient ([1]; 313.15 K) | activity coefficient ([1]; 323.15 K) | activity coefficient ([1]; 333.15 K) | activity coefficient ([1]; 343.15 K) | activity coefficient ([1]; 353.15 K) | mass density ([2]; 313.15 K) [kg/m3] | mass density ([2]; 323.15 K) [kg/m3] | mass density ([2]; 333.15 K) [kg/m3] | mass density ([2]; 343.15 K) [kg/m3] | mass density ([2]; 353.15 K) [kg/m3] | SMILES
14 | 1.57 ± 0.16 | 1.47 ± 0.15 | 1.36 ± 0.14 | 1.26 ± 0.13 | 1.18 ± 0.12 | – | – | – | – | – | CO [methanol] + CCCCCCCCn1cc[n+](C)c1C.F[B-](F)(F)F
15 | 29.6 ± 3.1 | 28.8 ± 3 | 27.9 ± 2.9 | 26.9 ± 2.8 | 26.1 ± 2.8 | – | – | – | – | – | CC(C)CC(C)(C)C [2,2,4-trimethylpentane] + CCCCCCCCn1cc[n+](C)c1C.F[B-](F)(F)F
16 | 2.5 ± 0.26 | 2.35 ± 0.25 | 2.2 ± 0.23 | 2.07 ± 0.22 | 1.93 ± 0.2 | – | – | – | – | – | CC(C)O [propan-2-ol] + CCCCCCCCn1cc[n+](C)c1C.F[B-](F)(F)F
17 | 20 ± 2.1 | 19.8 ± 2.1 | 19.2 ± 2 | 18.7 ± 2 | 18.1 ± 1.9 | – | – | – | – | – | CCCCCC [hexane] + CCCCCCCCn1cc[n+](C)c1C.F[B-](F)(F)F
18 | 1.01 ± 0.1 | 1.02 ± 0.1 | 1.04 ± 0.11 | 1.05 ± 0.11 | 1.07 ± 0.11 | – | – | – | – | – | CC#N [acetonitrile] + CCCCCCCCn1cc[n+](C)c1C.F[B-](F)(F)F
19 | 2.66 ± 0.28 | 2.54 ± 0.27 | 2.42 ± 0.25 | 2.3 ± 0.24 | 2.19 ± 0.23 | – | – | – | – | – | CC(C)CO [2-methyl-1-propanol] + CCCCCCCCn1cc[n+](C)c1C.F[B-](F)(F)F
20 | 2.79 ± 0.29 | 2.64 ± 0.28 | 2.52 ± 0.26 | 2.4 ± 0.25 | 2.28 ± 0.24 | – | – | – | – | – | CCCCO [butan-1-ol] + CCCCCCCCn1cc[n+](C)c1C.F[B-](F)(F)F
21 | 2.56 ± 0.27 | 2.39 ± 0.25 | 2.24 ± 0.24 | 2.1 ± 0.22 | 1.97 ± 0.21 | – | – | – | – | – | CCCO [propan-1-ol] + CCCCCCCCn1cc[n+](C)c1C.F[B-](F)(F)F
22 | 33 ± 3.5 | 32.5 ± 3.4 | 32.2 ± 3.4 | 31.8 ± 3.3 | 31.3 ± 3.3 | – | – | – | – | – | CCCCCCCC [octane] + CCCCCCCCn1cc[n+](C)c1C.F[B-](F)(F)F
23 | 15.8 ± 1.7 | 15.5 ± 1.6 | 15.1 ± 1.6 | 14.7 ± 1.6 | 14.3 ± 1.5 | – | – | – | – | – | CC1CCCCC1 [methylcyclohexane] + CCCCCCCCn1cc[n+](C)c1C.F[B-](F)(F)F
24 | 15.8 ± 1.7 | 15.3 ± 1.6 | 14.8 ± 1.6 | 14.3 ± 1.5 | 14 ± 1.5 | – | – | – | – | – | CCCCC [pentane] + CCCCCCCCn1cc[n+](C)c1C.F[B-](F)(F)F
25 | 25.5 ± 2.7 | 25.1 ± 2.6 | 24.7 ± 2.6 | 24.3 ± 2.5 | 23.9 ± 2.5 | – | – | – | – | – | CCCCCCC [heptane] + CCCCCCCCn1cc[n+](C)c1C.F[B-](F)(F)F
26 | 2.93 ± 0.31 | 2.78 ± 0.29 | 2.65 ± 0.28 | 2.51 ± 0.26 | 2.4 ± 0.25 | – | – | – | – | – | CCC(C)O (stereo not given) [butan-2-ol] + CCCCCCCCn1cc[n+](C)c1C.F[B-](F)(F)F
27 | – | – | – | – | – | 1092.3 ± 2.5 | 1086 ± 2.5 | 1079.7 ± 2.5 | 1073.3 ± 2.5 | 1067 ± 2.5 | CCCCCCCCn1cc[n+](C)c1C.F[B-](F)(F)F [1-octyl-2,3-dimethylimidazolium tetrafluoroborate]
28 | 2.12 ± 0.22 | 1.96 ± 0.21 | 1.82 ± 0.19 | 1.67 ± 0.17 | 1.54 ± 0.16 | – | – | – | – | – | CCO [ethanol] + CCCCCCCCn1cc[n+](C)c1C.F[B-](F)(F)F
29 | 4.36 ± 0.46 | 4.42 ± 0.46 | 4.46 ± 0.47 | 4.5 ± 0.47 | 4.57 ± 0.48 | – | – | – | – | – | CCc1ccccc1 [ethylbenzene] + CCCCCCCCn1cc[n+](C)c1C.F[B-](F)(F)F
30 | 2.91 ± 0.31 | 2.96 ± 0.31 | 2.96 ± 0.31 | 2.96 ± 0.31 | 2.96 ± 0.31 | – | – | – | – | – | CCOC(C)=O [ethyl acetate] + CCCCCCCCn1cc[n+](C)c1C.F[B-](F)(F)F
31 | 55.2 ± 5.8 | 54.2 ± 5.7 | 52.9 ± 5.6 | 51.5 ± 5.4 | 50.5 ± 5.3 | – | – | – | – | – | CCCCCCCCCC [decane] + CCCCCCCCn1cc[n+](C)c1C.F[B-](F)(F)F
32 | 42.2 ± 4.4 | 41.1 ± 4.3 | 39.6 ± 4.2 | 38.4 ± 4 | 37.1 ± 3.9 | – | – | – | – | – | CCCCCCCCC [nonane] + CCCCCCCCn1cc[n+](C)c1C.F[B-](F)(F)F
